Laboratory results reported in patent US5336673A, “3-substituted cephem compounds” (priority 1990, dated 1994).
≈ marks a conversion by molar mass, not a printed value. Where two headings read alike, the source gives them in different places.

Tests used:
[1] = system: Pseudomonas aeruginosa 1771M; assay: Antibacterial activity, MIC by Agar dilution method, standard test strain 15; type: cell-based; conditions: 18 h
Experimental: (§1) The antibacterial activity was determined by an Agar dilution method as described below.
(§2) That is, the two-fold serial dilutions of the antibacterial compounds (1000 μg compound/ml) were prepared and dispersed in Muller Hinton Agar in a petri dish to a concentration of 100~0.002 μg/ml. The culture broths of standard test strains were inoculated on the medium to a concentration 10^7 CFU/ml, and incubated at 37° C. for 18 hours. The concentration of compounds(I) at which the strains were not grown was regarded as minimum inhibition concentration (MIC).
(§3) The results of antibacterial activity test of the representative examples of the compound (I) against 20 standard test strains shown in terms of MIC were indicated in Table 1.
15. Pseudomonas aeruginosa 1771M

[2] = system: Pseudomonas aeruginosa 1592E; assay: Antibacterial activity, MIC by Agar dilution method, standard test strain 13; type: cell-based; conditions: 10^7 CFU/ml, 37° C., 18 hours
Experimental: as §1, §2, §3
13. Pseudomonas aeruginosa 1592E

Acute toxcity test = conditions: in vivo, male ICR-mouse, after 1 week
Experimental: Further, in order to illustrate the usefulness of the compounds (I) as a drug, compounds of Examples 12, 18 and 36 were tested for acute toxcity by using 4 weeks-old male ICR-mouse as a test animal.
the compounds were dissolved in physiological saline and phosphate buffered solution (pH 7.0), or if they were […], suspended in carboxymethylcellulose or gum Arabic and then mixed with phosphate buffered solution.
The solution or mixture was administered to the tested animals intravenously or subcutaneously and, after 1 week, the number of surviving animals was calculated.

Escherichia coli TEM = assay: Antibacterial activity, MIC by Agar dilution method, standard test strain 10; type: cell-based
Experimental: as §1, §2, §3

[3] = system: Gram-positive strains as well as Gram-negative strains including Pseudomonas; assay: Antibacterial activity (summary in words); type: cell-based; conditions: Gram-positive and Gram-negative strains
Experimental: as §1, §2

Escherichia coli 1507E = assay: Antibacterial activity, MIC by Agar dilution method, standard test strain 11; type: cell-based
Experimental: as §1, §2, §3

Escherichia coli DC O = assay: Antibacterial activity, MIC by Agar dilution method, standard test strain 8; type: cell-based; conditions: Escherichia coli DC O; 10^7 CFU/ml, 37° C., 18 hours; read-out: MIC
Experimental: as §1, §2, §3

[4] = system: Streptococcus pyogenes A 77; assay: Antibacterial activity, MIC by Agar dilution method, standard test strain 2; type: cell-based; conditions: A77, 10^7 CFU/ml, 37° C., 18 hours
Experimental: as §1, §2, §3
2. Streptococcus pyogenes A 77

[5] = system: Streptococcus faecium MD 86; assay: Antibacterial activity, MIC by Agar dilution method, standard test strain 3; type: cell-based; conditions: Enterococcus faecium, MD86, 10^7 CFU/ml, 37° C., 18 hours
Experimental: as §1, §2, §3
3. Streptococcus faecium MD 86

[6] = system: Streptococcus pyogenes A 308; assay: Antibacterial activity, MIC by Agar dilution method, standard test strain 1; type: cell-based; conditions: A308, 10^7 CFU/ml, 37° C., 18 hours
Experimental: as §1, §2, §3
1. Streptococcus pyogenes A 308

Escherichia coli DC 2 = assay: Antibacterial activity, MIC by Agar dilution method, standard test strain 9; type: cell-based; conditions: DC2; Escherichia coli DC 2; 10^7 CFU/ml, 37° C., 18 hours; read-out: MIC
Experimental: as §1, §2, §3

Klebsiella oxytoca 1082E = assay: Antibacterial activity, MIC by Agar dilution method, standard test strain 17; type: cell-based; conditions: 10^7 CFU/ml, 37° C., 18 hours
Experimental: as §1, §2, §3

Enterobacter cloacae P99 = assay: Antibacterial activity, MIC by Agar dilution method, standard test strain 19; type: cell-based; conditions: P99, 18 h
Experimental: as §1, §2, §3
19. Enterobacter cloacae P99

[7] = system: Klebsiella aerogenes 1522E; assay: Antibacterial activity, MIC by Agar dilution method, standard test strain 18; type: cell-based; conditions: Klebsiella aerogenes 1522E; 10^7 CFU/ml, 37° C., 18 hours; read-out: MIC
Experimental: as §1, §2, §3
18. Klebsiella aerogenes 1522E

Staphyloccus aureus 285 = assay: Antibacterial activity, MIC by Agar dilution method, standard test strain 5; type: cell-based; conditions: 10^7 CFU/ml, 37° C., 18 hours
Experimental: as §1, §2, §3
5. Staphyloccus aureus 285

[8] = system: Enterobacter cloacae 1321E; assay: Antibacterial activity, MIC by Agar dilution method, standard test strain 20; type: cell-based
Experimental: as §1, §2, §3
20. Enterobacter cloacae 1321E

[9] = system: Pseudomonas aeruginosa 9027; assay: Antibacterial activity, MIC by Agar dilution method, standard test strain 12; type: cell-based; conditions: 10^7 CFU/ml, 37° C., 18 hours
Experimental: as §1, §2, §3
12. Pseudomonas aeruginosa 9027

Salmonella typhimurium = assay: Antibacterial activity, MIC by Agar dilution method, standard test strain 16; type: cell-based; conditions: Salmonella enterica, 10^7 CFU/ml, 37° C., 18 hours
Experimental: as §1, §2, §3
16. Salmonella typhimurium

[10] = system: Staphylococcus aureus SG 511; assay: Antibacterial activity, MIC by Agar dilution method, standard test strain 4; type: cell-based; conditions: SG511, 10^7 CFU/ml, 37° C., 18 hours
Experimental: as §1, §2, §3
4. Staphylococcus aureus SG 511

Escherichia coli O 55 = assay: Antibacterial activity, MIC by Agar dilution method, standard test strain 7; type: cell-based
Experimental: as §1, §2, §3

[11] = system: Pseudomonas aeruginosa 1771; assay: Antibacterial activity, MIC by Agar dilution method, standard test strain 14; type: cell-based; conditions: 10^7 CFU/ml, 37° C., 18 hours
Experimental: as §1, §2, §3
14. Pseudomonas aeruginosa 1771

[12] = system: Staphylococcus aureus 503; assay: Antibacterial activity, MIC by Agar dilution method, standard test strain 6; type: cell-based; conditions: 10^7 CFU/ml, 37° C., 18 hours
Experimental: as §1, §2, §3
6. Staphylococcus aureus 503

[13] = sc, Subcutaneous administration
[14] = Escherichia coli 1507E, 10^7 CFU/ml, 37° C., 18 hours, read-out: MIC
[15] = Escherichia coli TEM, 10^7 CFU/ml, 37° C., 18 hours, read-out: MIC
[16] = Enterobacter cloacae 1321E, 10^7 CFU/ml, 37° C., 18 hours, read-out: MIC
[17] = O55, Escherichia coli O 55, 10^7 CFU/ml, 37° C., 18 hours, read-out: MIC

Row | SMILES | MIC [1] [µg/mL] | MIC [2] [µg/mL] | antibacterial activity (in words) [3] | MIC (Escherichia coli 1507E; [14]) [µg/mL] | MIC (Escherichia coli DC O) [µg/mL] | MIC [4] [µg/mL] | MIC [5] [µg/mL] | MIC [6] [µg/mL] | MIC (Escherichia coli DC 2) [µg/mL] | MIC (Klebsiella oxytoca 1082E) [µg/mL] | MIC (Enterobacter cloacae P99) [µg/mL] | MIC [7] [µg/mL] | MIC (Staphyloccus aureus 285) [µg/mL] | MIC [9] [µg/mL] | MIC (Salmonella typhimurium) [µg/mL] | MIC [10] [µg/mL] | MIC [11] [µg/mL] | MIC [12] [µg/mL] | MIC (Escherichia coli TEM; [15]) [µg/mL] | MIC [8, 16] [µg/mL] | also measured
1 | CO/N=C(\C(=O)N[C@@H]1C(=O)N2C(C(=O)[O-])=C(C[n+]3cn(N)cn3)CS[C@H]12)c1csc(N)n1 [Example 12, (6R,7R)-7-[(Z)-2-(2-aminothiazol-4-yl)-2-methoxyiminoacetamido]-3-[(4-amino-1,2,4-triazol-2-ium)methyl]-ceph-3-em-4-carboxylate] | 0.195 (≈ 0.407 µM) | 6.25 (≈ 13 µM) | excellent antibacterial activity | 0.098 (≈ 0.204 µM) | 0.098 (≈ 0.204 µM) | 0.007 (≈ 0.0146 µM) | > 100 | 0.007 (≈ 0.0146 µM) | 0.097 (≈ 0.202 µM) | 1.56 (≈ 3.26 µM) | 100 (≈ 209 µM) | 0.049 (≈ 0.102 µM) | 3.12 (≈ 6.52 µM) | 12.5 (≈ 26.1 µM) | 0.098 (≈ 0.204 µM) | 1.56 (≈ 3.26 µM) | 6.25 (≈ 13 µM) | 0.781 (≈ 1.63 µM) | – | – | LD50 at 168 h (Acute toxcity test; [13]): > 6000 mg/kg; LD50 at 168 h (Acute toxcity test; Intravenous administration): > 4000 mg/kg; MIC (Escherichia coli TEM; Escherichia coli, 18 h): 0.049 µg/mL (≈ 0.102 µM); MIC ([8]; Enterobacter cloacae, 1321E, 18 h): 0.025 µg/mL (≈ 0.0521 µM); MIC (Escherichia coli O 55; Escherichia coli, O55, 18 h): 0.025 µg/mL (≈ 0.0521 µM)
2 | CO/N=C(\C(=O)N[C@@H]1C(=O)N2C(C(=O)[O-])=C(C[n+]3cn(N)c4ccccc43)CS[C@H]12)c1csc(N)n1 [Example 19, (6R,7R)-7-[(Z)-2-(2-aminothiazol-4-yl)-2-methoxyiminoacetamido]-3-[(1-aminobenzimidazol-3-ium)methyl]-ceph-3-em-4-carboxylate] | 0.781 (≈ 1.48 µM) | 25 (≈ 47.3 µM) | excellent antibacterial activity | 0.391 (≈ 0.74 µM) | 0.391 (≈ 0.74 µM) | 0.007 (≈ 0.0132 µM) | > 100 | 0.013 (≈ 0.0246 µM) | 0.391 (≈ 0.74 µM) | 3.12 (≈ 5.91 µM) | > 100 | 0.195 (≈ 0.369 µM) | 0.781 (≈ 1.48 µM) | 50 (≈ 94.6 µM) | 0.195 (≈ 0.369 µM) | 0.781 (≈ 1.48 µM) | 12.5 (≈ 23.6 µM) | 0.391 (≈ 0.74 µM) | 0.391 (≈ 0.74 µM) | 0.195 (≈ 0.369 µM) | MIC (Escherichia coli O 55; Escherichia coli, O55, 18 h): 0.098 µg/mL (≈ 0.185 µM)
3 | CC(C)(O/N=C(\C(=O)N[C@@H]1C(=O)N2C(C(=O)[O-])=C(C[n+]3cn(N)cn3)CS[C@H]12)c1csc(N)n1)C(=O)O [Example 36, (6R,7R)-7-[(Z)-2-(2-aminothiazol-4-yl)-2-(2-carboxyprop-2-oxyimino)acetamido]-3-[(4-amino-1,2,4-triazol-2-ium)methyl]-ceph-3-em-4-carboxylate] | 0.098 (≈ 0.178 µM) | 6.25 (≈ 11.3 µM) | excellent antibacterial activity | – | 0.781 (≈ 1.42 µM) | 0.049 (≈ 0.0888 µM) | 25 (≈ 45.3 µM) | 0.098 (≈ 0.178 µM) | 0.195 (≈ 0.354 µM) | 100 (≈ 181 µM) | 100 (≈ 181 µM) | 0.781 (≈ 1.42 µM) | 3.12 (≈ 5.67 µM) | 6.25 (≈ 11.3 µM) | 6.25 (≈ 11.3 µM) | 1.56 (≈ 2.83 µM) | 1.56 (≈ 2.83 µM) | 1.56 (≈ 2.83 µM) | 3.12 (≈ 5.67 µM) | 0.391 (≈ 0.709 µM) | LD50 at 168 h (Acute toxcity test; [13]): > 6000 mg/kg; LD50 at 168 h (Acute toxcity test; Intravenous administration): > 4000 mg/kg; MIC (Escherichia coli 1507E; Escherichia coli, 1507E, 18 h): 1.56 µg/mL (≈ 2.83 µM); MIC (Escherichia coli O 55; [17]): 0.195 µg/mL (≈ 0.354 µM)
4 | CO/N=C(\C(=O)N[C@@H]1C(=O)N2C(C(=O)[O-])=C(C[n+]3nn(N)c4ccccc43)CS[C@H]12)c1nsc(N)n1 [Example 85, (6R,7R)-7-[(Z)-2-(5-amino-1,2,4-thiadiazol-3-yl)-2-methoxyiminoacetamido]-3-[(1-aminobenzotriazol-3-ium)methyl]-ceph-3-em-4-carboxylate] | 1.56 (≈ 2.95 µM) | 3.12 (≈ 5.89 µM) | – | 0.049 (≈ 0.0924 µM) | 0.025 (≈ 0.0471 µM) | 0.004 (≈ 0.00754 µM) | 100 (≈ 188 µM) | 0.007 (≈ 0.0132 µM) | 0.025 (≈ 0.0471 µM) | 0.781 (≈ 1.47 µM) | 25 (≈ 47.1 µM) | 0.049 (≈ 0.0924 µM) | 1.56 (≈ 2.95 µM) | 3.12 (≈ 5.89 µM) | 0.195 (≈ 0.368 µM) | 0.391 (≈ 0.737 µM) | 1.56 (≈ 2.95 µM) | 0.391 (≈ 0.737 µM) | 0.025 (≈ 0.0471 µM) | 0.007 (≈ 0.0132 µM) | MIC (Escherichia coli O 55; [17]): 0.007 µg/mL (≈ 0.0132 µM)
